The values below come from patent US7132279B2, “Epidermal melanocyte culture formulations” (New York Eye & Ear Infirmary, priority 2003, dated 2006).

Where no end group is shown, it is not given here.

The test system of experiment [1] is epidermal melanocytes. The experiment in a line: Migration of cultured epidermal melanocytes in Boyden chambers. The experiment is classed as cell-based, human. The following applies: for Migration of epidermal melanocytes: cAMP deleted medium. The protocol: Cell migration experiments were performed on early passages of cells in 48-well Boyden chambers (Neuroprobe, Bethesda, Md.). Cultured epidermal melanocytes were dissociated with 0.05% trypsin-EDTA (Sigma, St. Louis, Mo.) at 37° C. for 2–3 minutes, neutralized by culture medium with 10% FBS. The cells were centrifuged and resuspended in culture medium. The lower half of the Boyden chambers contained culture medium with or without tested substances. An 8 μm pore cellulose nitrate filter separated the upper and lower wells. Epidermal melanocytes (3×10^4) suspended in 50 μl culture medium (with or without tested substances) were added to the upper wells. The chamber was incubated at 37° C. in a humidified atmosphere at 95% air and 5% CO2. After 6 hours, the filter was removed from the chamber, fixed in 95% ethanol for 5 minutes, and stained with hematoxylin for 1 minute. The number of cells migrating through the filter and attached to the lower surface of the filter was counted (Doerr et al., 1996, J Biol Chem 271:2443; Verdoorn et al., 1986, Arch Ophtalmol 104:1216). Triplicate samples were assayed in all experiments.

Experiment [2] relates to epidermal melanocytes. The experiment in a line: Cell growth of cultured epidermal melanocytes by cell counting (6 days). The experiment is classed as cell-based, human. The protocol:
(§1) Three deleted media were used for the study, (i) growth factor-deleted medium, (ii) cAMP-elevating agent deleted medium and (iii) serum-depleted medium. Various testing substances were added to the three deleted media above. These substances include bFGF, HGF, epinephrine and α-MSH. The deleted medium without the test substance was the negative control and the complete medium is the positive control.
Human skin specimens containing epidermis were obtained from a donor. The specimens were incubated in 0.25% trypsin solution (GIBCO, Carlsbad, Calif.) for 15 minutes at 37° C., followed by a 10 minute incubation with 0.2% EDTA (Sigma, St. Louis, Mo.) solution. The epidermal sheets were gently treated with forceps to dissociate the epidermal cells and to yield an epidermal cell suspension. The epidermal cells were centrifuged and seeded into a 25 cm^2 flask with the culture medium. The flask was incubated at 37° C. in an atmosphere of 95% humidified air and 5% CO2. Geneticin (Sigma, St. Louis, Mo.) was added (100 μg/ml) for three days to eliminate keratinocytes and fibroblasts. The medium was changed every three days. The melanocytes typically reached confluence in two weeks. After reaching confluence, the melanocytes were detached using trypsin-EDTA solution, centrifuged, diluted and seeded for subculture. At the time of transplantation, the melanocytes were detached using trypsin-EDTA solution, centrifuged and resuspended with F12 medium.
Cell counting was used to evaluate the effect of the test substance on growth of epidermal melanocytes. Epidermal melanocytes were plated in 6-well plates at a density of 1×10^5 cells per well with medium. After 24 hours, medium was replaced by the testing media. The media was changed every three days. After six days, the cells were detached with trypsin-EDTA solution and neutralized with culture medium with 10% serum. The cell suspension was centrifuged and the pellet was resuspended in 1 ml F12 medium, 20 μl of the cell suspension was collected into the tip of a Pasteur pipette and transferred to a hemocytometer. The hemocytometer was observed under an optical microscope. Cells falling in four […] areas bounded by three parallel lines were counted. The cell number was obtained using Formula I shown below (Freshney, 1987, Culture of Animal Cells. Wiley-Liss, Inc., New York, 2nd edition). The average of four counts was calculated. Triplicate samples were assayed in all experiments. c=n×10^4 FORMULA I • where c=concentration (cells/ml), n=number of cells counted.

Experiment [3] has as its system epidermal melanocytes. Description: Melanin production of cultured epidermal melanocytes (optical density at 475 nm). The settings on record: 6 days. In kind it is cell-based, human. The protocol:
as §1
Melanocytes cultured as described above were detached by trypsin-EDTA solution and counted in a hemocytometer. The cell suspensions were centrifuged and the pellet was resuspended in 1N NaOH. Melanin concentration was determined by measurement of optical density at 475 nm by a spectrophotometer and compared with a standard curve obtained using synthetic melanin (Sigma, St. Louis, Mo.). Melanin content is expressed as μg/culture or ng/cell (Hu et al., 1995, Invest. Ophthalmol Vis Sci 36:931).

The test system of another experiment is ocular melanocytes. The following applies: Hu, 2000; cited from earlier work.
Experiment [4] concerns epidermal melanocytes. The following applies: Halaban et al., 1988; cholera toxin in the media; cited from earlier work.
The mark [5] stands for this setting: cAMP-elevating agents-deleted medium, epinephrine 1-3,000 ng/ml, α-MSH 1-1,000 ng/ml.
Setting [6] is: growth factor-deleted medium, 1-1,000 ng/ml.

As for `CNC[C@H](O)c1ccc(O)c(O)c1` [epinephrine, (L)-Epinephrine bitartrate], in the experiment on epidermal melanocytes [1], the “Migration of epidermal melanocytes” value was “stimulated the growth, melanogenesis and migration”. Further, in the experiment with epidermal melanocytes [2] (setting [5]), the “Cell growth (cell number) versus control” value is reported as “dose dependent stimulation of cell growth”. Further, the “Melanin content/well versus control” value with epidermal melanocytes [3] (setting [5]) is recorded as “significantly greater than that of the controls”.

“HGF: hepatocyte growth factor, pleiotrophic growth factor (PeproTech)”: the “Migration cell number versus control” value in the experiment with epidermal melanocytes [1] (1-1,000 ng/ml, 6 hours) is reported as “dose dependent stimulation of migration”. In the experiment with ocular melanocytes, the “Growth of cultured ocular melanocytes” value is on record as “stimulates growth of cultured ocular melanocytes”. The “Cell growth (cell number) versus control” value with epidermal melanocytes [2] (setting [6]) was “dose dependent stimulation of cell growth”. In addition, the “Melanin content/well versus control” value in the experiment with epidermal melanocytes [3] (setting [6]) is on record as “significantly greater than that of the controls”.

“bFGF: basic fibroblast growth factor (PeproTech)”: in the experiment with epidermal melanocytes [2] (setting [6]), the “Cell growth (cell number) versus control” value is given as “dose dependent stimulation of cell growth”. For the same compound, the “Melanin content/well versus control” value in the experiment on epidermal melanocytes [3] (setting [6]) was “did not show any significant influence on melanin content”.

For “α-MSH: tridecapeptide with a sequence identical to the first 13 amino acids of adrenocorticotropin (ACTH) (SYSMEHFRWGKPV; ends and bridges not checked; UniProt P01189 138-150, looked up)”, the “Growth of cultured epidermal melanocytes” value in the experiment on epidermal melanocytes [4] was “failed to stimulate growth”. Moreover, the “Migration of epidermal melanocytes” value in the experiment on epidermal melanocytes [1] was “stimulated the growth, melanogenesis and migration”. Also, the “Cell growth (cell number) versus control” value in the experiment on epidermal melanocytes [2] (setting [5]) is reported as “dose dependent stimulation of cell growth”. Besides, the “Melanin content/well versus control” value in the experiment with epidermal melanocytes [3] (setting [5]) is “significantly greater than that of the controls”.
